Measured values: patent publication EP0008361A1, “Halogen-substituted thiophene derivatives and method for their preparation” (priority 1978, dated 1980)
Like-named read-outs stand apart in the source and are kept apart here.

Tests used:
[1] = tested on: Stubenfliegen-Larven (Musca domestica); assay: Breeding test with housefly larvae on treated nutrient medium; assay type: in vivo; settings: development observed over one week; for mortality at 10 µg/mL / mortality at 25 µg/mL: Musca domestica, 168 h, read-out: Mortalitätsrate; for mortality at 10 µg/mL: Wirkstoffkonzentration 10 ppm; for mortality at 25 µg/mL: Wirkstoffkonzentration 25 ppm; for Mortalitätsrate: Wirkstoffkonzentration 50 ppm
Experimental: Zuchtversuch mit Stubenfliegen-Larven (Musca domestica)
50 g eines Nährbodens aus Bäckerhefe, Trockenmilch, Wasser und Agar werden in warmem Zustand gründlich mit der wäßrigen Wirkstoffaufbereitung gemischt.
Nach dem Erkalten belegt man den Nährboden mit ca. 0,1 ml Fliegeneiern und beobachtet deren Entwicklung über eine Woche.

[2] = tested on: Wurzelgallennemathoden (Meloidogyne incognita); assay: Action on root-knot nematodes, drench of tomato plants in infested compost soil; assay type: in vivo; settings: 30 ml drench, roots rated after 6 to 8 weeks
Experimental: Wirkung auf Wurzelgallennemathoden (Meloidogyne incognita)
Junge Tomatenpflanzen werden in je 500 g Komposterde gepflanzt, die stark mit Wurzelgallennematoden infiziert ist.
Nach 3 Tagen erfolgt die Behandlung mit der wäßrigen Wirkstoffaufbereitung durch Gießen von 30 ml Aufbereitung.
Nach 6 bis 8 Wochen bonitiert man die Wurzeln auf Gallenbildung.

[3] = tested on: Spinnmilben (Tetranychus telarius); assay: whole plant or invertebrate; settings: 144 h, read-out: Mortalitätsrate
[4] = tested on: Moskito-Larven (Aedes aegypti); assay: whole plant or invertebrate; settings: 24 h, read-out: Mortalitätsrate
[5] = tested on: Spinnmilben (Tetranychus telarius); settings: assessed after 6 days
[6] = tested on: Moskito-Larven (Aedes aegypti); settings: Wirkstoffkonzentration 1 ppm; 4th instar larvae, 20°C, after 24 hours
Blattläuse (Aphis fabae) = settings: evaluated after 24 hours
[7] = Wirkstoffkonzentration 0,05 (unit not given)

| Compound | mortality at 10 µg/mL [1] [%] | mortality at 25 µg/mL [1] [%] | mortality at 0.02 % [3] [%] | mortality at 0.05 % [3] [%] | Mortalitätsrate [1] | Gallenbildung ([2]; Wirkstoffkonzentration 0,1 %) | Mortalitätsrate [6] | Mortalitätsrate (Blattläuse (Aphis fabae); [7]) | other results |
| --- | --- | --- | --- | --- | --- | --- | --- | --- | --- |
| CCOP(=O)(SCc1csc(Cl)c1Cl)SC(C)CC (stereo not shown) [Wirkstoff III] | 100 | 100 | 100 | 100 |  |  |  |  | Gallenbildung ([2]; Wirkstoffkonzentration 0,05 %): keine Gallenbildung; mortality at 0.01 % [3]: 100%; mortality at 0.25 µg/mL [4]: 100%; mortality at 0.5 µg/mL [4]: 100%; mortality at 1 µg/mL [4]: 100% |
| CCOP(=S)(OCC)SCc1ccsc1 [Wirkstoff V2, 0,0-Diäthyl-S-(tienyl-4-methyl)-dithiophosphat, reference compound] |  |  |  |  | unwirksam | unwirksam | unwirksam | unwirksam | Mortalitätsrate ([5]; Wirkstoffkonzentration 0,05 %): unwirksam; mortality at 0.1 % [3]: 80% |
| CNC(=O)CSP(=S)(OC)OC [Wirkstoff V1, 0,0-Dimethyl-S-(N-methyl-carbamoylmethyl)-phosphordi-thioat] |  |  |  |  |  | unwirksam |  |  |  |
| CCOP(=O)(SCc1csc(Cl)c1Cl)SCC(C)C (stereo not drawn) [Wirkstoff I, O-Äthyl-S-isobutyl-S-(2,3-dichlor-thienyl-4-methyl)-dithiophosphat] | 80 | 100 | 100 | 100 |  |  |  | 100% | Mortalitätsrate (Blattläuse (Aphis fabae); Wirkstoffkonzentration 0,02 (unit not given)): 90% |
| CCOP(=S)(OCC)SCc1csc(Cl)c1Cl [Wirkstoff V3, 0,0-Diäthyl-S-(2,3-dichlor-thienyl-4-methyl)-dithiophosphat] |  |  |  |  | unwirksam |  | unwirksam |  | Mortalitätsrate ([5]; Wirkstoffkonzentration 0,1 %): unwirksam |
